Test [1] has as its target T1, LAG-3 / MHCII (Revvity HTRF Human LAG-3 / MHCII Binding Kit) (Homo sapiens, UniProt P18627).
T1 sequence (P18627 23-450 limits assumed): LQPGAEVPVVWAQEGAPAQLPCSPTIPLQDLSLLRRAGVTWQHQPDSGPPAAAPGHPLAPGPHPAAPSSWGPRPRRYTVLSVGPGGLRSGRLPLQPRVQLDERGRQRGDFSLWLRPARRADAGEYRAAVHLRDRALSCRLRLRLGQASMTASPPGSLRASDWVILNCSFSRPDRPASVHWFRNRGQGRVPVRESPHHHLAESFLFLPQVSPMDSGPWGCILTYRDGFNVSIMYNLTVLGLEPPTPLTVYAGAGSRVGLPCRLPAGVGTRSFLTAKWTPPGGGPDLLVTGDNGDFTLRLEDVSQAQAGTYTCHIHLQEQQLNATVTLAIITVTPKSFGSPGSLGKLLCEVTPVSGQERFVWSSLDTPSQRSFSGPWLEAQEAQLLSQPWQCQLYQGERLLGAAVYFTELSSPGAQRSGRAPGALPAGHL
As to the kind of experiment: HTRF.

Test [2] has as its target T2, LAG-3-His (recombinant human LAG-3; discussed as LAG-3 D1) (Homo sapiens, UniProt P18627).
T2 sequence (P18627 23-450 limits assumed): T1 sequence (P18627 23-450 limits assumed)
As to the kind of experiment: MST. In kind it is binding.

Results on one compound are retold here after publication doi:10.64898/2025.12.07.692800v1 (biorxiv, 2025).

`N#Cc1ccnnc1N1CCCC(c2c[nH]c3ncccc23)C1` (centres unmarked) [N05] had a half-maximal effective concentration (EC50) in test [1] of 42.9 µM. In addition, the dissociation constant (Kd) in test [2] was determined as 59.2 µM.

In general, EC50 refers to the midpoint of the concentration-response curve. As a reminder, the Kd is a measure of binding affinity in units of concentration.
